Data published in US9540343B2 (Gilead Sciences, Inc., priority 2011, dated 2017).

What was measured:
[1] = test system: HIV-IIIb; assay: Test A: Antiviral assay in MT4 cells; assay type: cell-based, HIV-1; conditions: Human immunodeficiency virus 1, IIIB, MT4, 120 h, read-out: % inhibition at 2 μM, percent inhibition of virus-induced cell killing, from dose response curve at 2 uM drug; MT-4 cells infected with HIV-IIIb, 5 days, CellTiter-Glo
[2] = in vitro; conditions: human, uninfected MT-4 cells, CC50 (nM), same protocol as Test A, CellTiter-Glo
Method in brief: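 Cytoprotection read-out: CellTiter-Glo chemiluminescence after 5 days at 37 °C of HIV-IIIb-infected MT-4 cells (m.o.i. 0.003) with compound in 10-point 3-fold dilutions, quadruplicate, 10% FBS. Cytotoxicity (CC50) measured identically without virus.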

Structure (SMILES) | inhibition at 2 µM [1] [%] | CC50 at 5 days [2] [nM]
O=C(Cc1c[nH]c2ccccc12)N[C@@H](Cc1cc(F)cc(F)c1)c1ncccc1-c1ccc(Cl)cc1 [Example 31, (S)—N-(1-(3-(4-chlorophenyl)pyridin-2-yl)-2-(3,5-difluorophenyl)ethyl)-2-(1H-indol-3-yl)acetamide] | 34 | 8630
Cc1c(C#N)c(C(F)(F)F)nn1CC(=O)N[C@@H](Cc1cc(F)cc(F)c1)c1ncccc1-c1ccc(F)c(C(N)=O)c1 [Example 376, (S)-5-(2-(1-(2-(4-cyano-5-methyl-3-(trifluoromethyl)-1H-pyrazol-1-yl)acetamido)-2-(3,5-difluorophenyl)ethyl)pyridin-3-yl)-2-fluorobenzamide] | 2 | 29100
O=C(Cc1c[nH]c2ccc(F)cc12)N[C@@H](Cc1cc(F)cc(F)c1)c1ncccc1-c1cc(Cl)cc(Cl)c1 [Example 422] | 0 | 6760
O=C1Cc2cc(-c3cccnc3[C@H](Cc3cc(F)cc(F)c3)NC(=O)Cn3nc(C(F)F)c4c3C(F)(F)CCC4(F)F)ccc2N1 [Example 548D, (S)-2-(3-(difluoromethyl)-4,4,7,7-tetrafluoro-4,5,6,7-tetrahydro-1H-indazol-1-yl)-N-(2-(3,5-difluorophenyl)-1-(3-(2-oxoindolin-5-yl)pyridin-2-yl)ethyl)acetamide] | 54 | 10100
CC(C)(C)OC(=O)N1CCc2c(c(C(F)(F)F)nn2CC(=O)N[C@@H](Cc2cc(F)cc(F)c2)c2ncccc2-c2ccc(F)c(C(N)=O)c2)C1 [Example 274, (S)-tert-butyl 1-(2-(1-(3-(3-carbamoyl-4-fluorophenyl)pyridin-2-yl)-2-(3,5-difluorophenyl)ethylamino)-2-oxoethyl)-3-(trifluoromethyl)-6,7-dihydro-1H-pyrazolo[4,3-c]pyridine-5(4H)-carboxylate] | 0 | 11000
CN1CCc2c(c(C(F)(F)F)nn2CC(=O)N[C@@H](Cc2cc(F)cc(F)c2)c2ncccc2-c2ccc(F)c(C(N)=O)c2)C1 [Example 324, (S)-5-(2-(2-(3,5-difluorophenyl)-1-(2-(5-methyl-3-(trifluoromethyl)-4,5,6,7-tetrahydro-1H-pyrazolo[4,3-c]pyridin-1-yl)acetamido)ethyl)pyridin-3-yl)-2-fluorobenzamide] | 31 | > 53200
N#Cc1cccc(-c2cccnc2[C@H](Cc2cc(F)cc(F)c2)NC(=O)Cc2c[nH]c3ccc(O)cc23)c1 [Example 38E, (S)—N-(1-(3-(3-cyanophenyl)pyridin-2-yl)-2-(3,5-difluorophenyl)ethyl)-2-(5-hydroxy-1H-indol-3-yl)acetamide] | 86 | 28600
Cc1[nH]c2ccc(F)cc2c1CC(=O)N[C@@H](Cc1cc(F)cc(F)c1)c1ncccc1-c1cccc(C(N)=O)c1 [Example 517E, (S)-3-(2-(2-(3,5-difluorophenyl)-1-(2-(5-fluoro-2-methyl-1H-indol-3-yl)acetamido)ethyl)pyridin-3-yl)benzamide] | 87 | 19100
NC(=O)c1cc(-c2cccnc2[C@H](Cc2cc(F)cc(F)c2)NC(=O)Cn2cc(CO)c(C(F)(F)F)n2)ccc1F [Example 292, (S)-5-(2-(2-(3,5-difluorophenyl)-1-(2-(4-(hydroxymethyl)-3-(trifluoromethyl)-1H-pyrazol-1-yl)acetamido)ethyl)pyridin-3-yl)-2-fluorobenzamide] | 1 | > 53200
CCn1c(=O)c2c(n1CC(=O)N[C@@H](Cc1cc(F)cc(F)c1)c1ncccc1-c1ccc(F)c(C(N)=O)c1)CCCC2 [Example 170C, (S)-5-(2-(2-(3,5-difluorophenyl)-1-(2-(2-ethyl-3-oxo-2,3,4,5,6,7-hexahydro-1H-indazol-1-yl)acetamido)ethyl)pyridin-3-yl)-2-fluorobenzamide] | 22 | > 53200
COc1ccc(-c2cccnc2[C@H](Cc2cc(F)cc(F)c2)NC(=O)Cc2c[nH]c3cc(OC)c(OCc4ccccc4)cc23)cc1 [Example 34E, (S)-2-(5-(benzyloxy)-6-methoxy-1H-indol-3-yl)-N-(2-(3,5-difluorophenyl)-1-(3-(4-methoxyphenyl)pyridin-2-yl)ethyl)acetamide] | 0 | 27800
NC(=O)c1cc(-c2cccnc2[C@H](Cc2cc(F)cc(F)c2)NC(=O)Cn2nc(C(F)F)c3c2CC2CC32)ccc1F (stereo partly drawn) [Example 198, 5-(2-((1S)-1-(2-(3-(difluoromethyl)-3b,4,4a,5-tetrahydro-1H-cyclopropa[3,4]cyclopenta[1,2-c]pyrazol-1-yl)acetamido)-2-(3,5-difluorophenyl)ethyl)pyridin-3-yl)-2-fluorobenzamide] | 112 | 45900
Cc1[nH]c2ccccc2c1CC(=O)N[C@@H](Cc1cc(F)cc(F)c1)c1ncccc1-c1cccc(C(N)=O)c1 [Example 497, (S)-3-(2-(2-(3,5-difluorophenyl)-1-(2-(2-methyl-1H-indol-3-yl)acetamido)ethyl)pyridin-3-yl)benzamide] | 67 | 27100
Cc1nc2n(CC(=O)N[C@@H](Cc3cc(F)cc(F)c3)c3ncccc3-c3ccc(F)c(C(N)=O)c3)c3ccccc3n2n1 [Example 600, (S)-5-(2-(2-(3,5-difluorophenyl)-1-(2-(2-methyl-4H-benzo[4,5]imidazo[1,2-b][1,2,4]triazol-4-yl)acetamido)ethyl)pyridin-3-yl)-2-fluorobenzamide] | 9 | > 53200
CC(=O)c1cn(CC(=O)N[C@@H](Cc2cc(F)cc(F)c2)c2ncccc2-c2ccc(F)c(C(N)=O)c2)nc1C(F)(F)F [Example 389B, (S)-5-(2-(1-(2-(4-acetyl-3-(trifluoromethyl)-1H-pyrazol-1-yl)acetamido)-2-(3,5-difluorophenyl)ethyl)pyridin-3-yl)-2-fluorobenzamide] | 2 | > 53200
O=C(Cn1nc(C(F)F)c2c1C(F)(F)C1CC21)N[C@@H](Cc1cc(F)cc(F)c1)c1ncccc1-c1ccc2cccnc2c1 (stereo partly drawn) [Example 97, (S)—N-(1-(3-(quinoline-7-yl)-pyridin-2-yl)-2-(3,5-difluorophenyl)ethyl)-2-(3-(difluoromethyl)-5,6-dihydro-4,5-(methano)-6,6-difluoro-cyclopenta[c]pyrazol-1(4H)-yl)acetamide] | 27 | 33900
Cc1[nH]c2ccc(F)cc2c1CC(=O)N[C@@H](Cc1cc(F)cc(F)c1)c1ncccc1-c1ccc(Cl)cc1 [Example 597, (S)—N-(1-(3-(4-chlorophenyl)pyridin-2-yl)-2-(3,5-difluorophenyl)ethyl)-2-(5-fluoro-2-methyl-1H-indol-3-yl)acetamide] | 89 | 8650
COc1cc(C)c(-c2cccnc2C(Cc2cc(F)cc(F)c2)NC(=O)Cc2c[nH]c3ccc(O)cc23)c(C)c1 (stereo not drawn) [Example 7, N-(2-(3,5-difluorophenyl)-1-(3-(4-methoxy-2,6-dimethylphenyl)pyridin-2-yl)ethyl)-2-(5-hydroxy-1H-indol-3-yl)acetamide] | 18 | 17600
